Data: patent publication US20260115201A1, “POTENTIAL THERAPEUTICS FOR FIBROSIS BY BLOCKING THE INCREASE OF A KEY ENZYME” (THE TEXAS A&M UNIVERSITY SYSTEM, priority 2022, published 2026)

System: bleomycin treated mice
Test: Bleomycin-induced pulmonary fibrosis in mice (survival, weight, BAL cells, lung collagen)
Format: in vivo, C57BL/6 mice
Experimental: The successful aspiration of bleomycin into the lungs was confirmed by listening for a crackling noise heard after the aspiration. 100 μl DMSO or 20 mg/kg RK33 in 100 μl DMSO was given to mice by intraperitoneal (IP) injection at day 10, 12, 14, 16, 18 and 20 after bleomycin treatment. Mice were weighed daily, and euthanized using CO2 following NIH guidelines at day 21 after bleomycin aspiration. The experiment was performed in accordance with the recommendations in the Guide for the Care and Use of Laboratory Animals of the National Institutes of Health. The Texas A&M University Animal Use and Care Committee approved the protocol.
The BALs were clarified by centrifugation at 500×g for 10 minutes, and the supernatants were transferred to Eppendorf tubes. The cells collected from BAL were counted, and BAL cytospins were prepared as described in Fibroblasts secrete Slit2 to inhibit fibrocyte differentiation and fibrosis, Proc Natl Acad Sci USA, 2014, 111: 18291-18296. BAL cytospins were fixed and treated with Wright-Giemsa stain (#08711, Polysciences, Inc., Warrington, PA) following Variation of differential cell counts of bronchoalveolar lavage fluid, Archives of pathology & laboratory medicine, 1986, 110(4): 341-343.
After collection of BAL fluid, mouse lungs were inflated with prewarmed Optimal Cutting Temperature (OCT) embedding medium (VWR, Radnor, PA) and then embedded in OCT, frozen on dry ice, and then stored at −80° C. 8-micron cryosections of mouse lungs were mounted on Superfrost Plus® microscope slides (VWR). The sections on the slides were allowed to air-dry for 24-48 hours. Total collagen on the mouse lung sections were stained with picrosirius red as described in Reduction of bleomycin-induced pulmonary fibrosis by serum amyloid P, J Immunol, 2007, 179: 4035-4044. Hydroxyproline in the mouse lung tissue was measured with a hydroxyproline assay as described in Attenuated pulmonary fibrosis in sialidase-3 knockout (Neu3−/−) mice, Am J Physiol Lung Cell Mol Physiol, 2020, 318(1): L165-L179.

[1] = 20 mg/kg IP, day 21 (FIGS. 6A-6B)

## (diimidazo[4,5-d:4′,5′-f]-[1,3]diazepine) [RK33]
20 mg/kg IP at day 10, 12, 14, 16, 18 and 20, to day 21 (FIG. 3)
  survival rate: dramatically increased
20 mg/kg IP at day 10-20 every other day (FIG. 4)
  body weight recovery: improved
20 mg/kg IP, day 21 (FIG. 5A)
  total cell number in BAL: significantly blocked the bleomycin effect
20 mg/kg IP, day 21 (FIG. 7)
  total collagen in lungs, hydroxyproline assay: reduced the abnormally high levels of collagen
[1]
  difference between lung of bleomycin+RK33 treated mouse and control mouse, picrosirius red collagen: no significant difference
  total collagen in lungs, picrosirius red staining: reduced the abnormally high levels of collagen
20 mg/kg IP, day 21, Wright-Giemsa stain (FIG. 5B)
  percentage of lymphocytes in BAL: significantly blocked the bleomycin effect
